Experimental data taken from patent publication US20260022142A1, “MACROCYCLIC IMMUNOMODULATORS” (Bristol-Myers Squibb Company, priority 2022, published 2026).
Bridge positions count the residues as written; N and C are the ends. Square brackets hold non-standard residues; d marks the D form. Peptide text beside a SMILES is read from it. * marks the point of attachment. Bip = N[C@@H](Cc1ccc(-c2ccccc2)cc1)C(=O)O; Phe(3-Me) = Cc1cccc(C[C@H](N)C(=O)O)c1; 3Pal = N[C@@H](Cc1cccnc1)C(=O)O; 4Pal = N[C@@H](Cc1ccncc1)C(=O)O; Cha = N[C@@H](CC1CCCCC1)C(=O)O; Cit = NC(=O)NCCC[C@H](N)C(=O)O; Tle = CC(C)(C)[C@H](N)C(=O)O; Carboxymethyl = O=C(O)C*; Orn = NCCC[C@H](N)C(=O)O; Aun = NCCCCCCCCCCC(=O)O; Dab = NCC[C@H](N)C(=O)O; Dap = NC[C@H](N)C(=O)O; Sar = CNCC(=O)O

Biological target: T1, PD-1/PD-L1 interaction (PE-labeled human PD-L1-Ig binding to Jurkat cell line over-expressing human PD-1) (Homo sapiens, UniProt Q15116)
T1 construct: expressed in transfected cells; host or cells: Jurkat
Assay: Jurkat-PD-1 Cell Binding High-Content Screening Assay (CBA)
Assay type: cell-based
Conditions: Jurkat cell line over-expressing human PD-1; PE-labeled PD-L1-Ig 20 nM final; read-out: Jurkat hPD1-PDL1 IC50
Method in brief: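 Jurkat-hPD-1 cells, DMEM/10% FCS; cpd 2 h 37° C; PE-PD-L1-Ig 20 nM final, 1 h; 4% PFA fix + Hoechst 33342, 3× dPBS wash; high-content imaging read-out.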

T1 sequence (Q15116 25-288): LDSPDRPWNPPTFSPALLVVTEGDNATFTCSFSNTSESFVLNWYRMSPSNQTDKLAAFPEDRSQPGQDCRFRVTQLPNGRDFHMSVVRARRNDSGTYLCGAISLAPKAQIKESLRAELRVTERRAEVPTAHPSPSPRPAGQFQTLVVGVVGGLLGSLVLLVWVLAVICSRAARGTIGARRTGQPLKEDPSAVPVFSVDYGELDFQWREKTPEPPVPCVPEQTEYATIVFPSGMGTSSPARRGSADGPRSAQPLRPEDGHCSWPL

IC50 | Structure (SMILES)
26 nM | Cc1cccc(C[C@@H]2NC(=O)[C@H](CC(=O)O)NC(=O)[C@H](Cc3ccc(OCC(=O)O)cc3)NC(=O)[C@H](CCC(N)=O)NC(=O)CSC[C@@H](C(=O)N[C@@H](CCN)C(=O)NCCCCCCCCCCC(=O)O)NC(=O)[C@H]([C@@H](C)O)NC(=O)[C@H](C(C)C)NC(=O)[C@H](CC3CCCCC3)NC(=O)[C@H](CCN)NC(=O)[C@@H](CC(C)C)NC(=O)[C@H](CCCN)NC(=O)[C@H](CCCNC(N)=O)NC(=O)[C@H](Cc3ccc(-c4ccccc4)cc3)NC(=O)[C@H](C(C)C)NC2=O)c1 [Compound 2830] ({CH2CO}-QY(Carboxymethyl)D[Phe(3-Me)]V[Bip][Cit][Orn][dL][Dab][Cha]VTC[Dab][Aun]-OH; thioether N-14)
43.2 nM | Cc1cccc(C[C@@H]2NC(=O)[C@H](CC(=O)O)NC(=O)[C@H](Cc3ccc(OCC(=O)O)cc3)NC(=O)[C@H](Cc3ccncc3)NC(=O)CSC[C@@H](C(=O)N[C@@H](CCN)C(=O)NCCCCCCCCCCC(=O)O)NC(=O)[C@H]([C@@H](C)O)NC(=O)[C@H](C(C)C)NC(=O)[C@H](CC3CCCCC3)NC(=O)[C@H](CCN)NC(=O)[C@@H](CC(C)C)NC(=O)[C@H](CCCN)NC(=O)[C@H](CCCNC(N)=O)NC(=O)[C@H](Cc3ccc(-c4ccccc4)cc3)NC(=O)[C@H](C(C)C)NC2=O)c1 [Compound 2831] ({CH2CO}-[4Pal]Y(Carboxymethyl)D[Phe(3-Me)]V[Bip][Cit][Orn][dL][Dab][Cha]VTC[Dab][Aun]-OH; thioether N-14)
48 nM | Cc1cccc(C[C@@H]2NC(=O)[C@H](CC(=O)O)NC(=O)[C@H](Cc3ccc(OCC(=O)O)cc3)NC(=O)[C@H](Cc3cccnc3)NC(=O)CSC[C@@H](C(=O)N[C@@H](CCN)C(=O)NCCCCCCCCCCC(=O)O)NC(=O)[C@H]([C@@H](C)O)NC(=O)[C@H](C(C)C)NC(=O)[C@H](CC3CCCCC3)NC(=O)[C@H](CCN)NC(=O)[C@@H](CC(C)C)NC(=O)[C@H](CCCN)NC(=O)[C@H](CCCNC(N)=O)NC(=O)[C@H](Cc3ccc(-c4ccccc4)cc3)NC(=O)[C@H](C(C)C)NC2=O)c1 [Compound 2832] ({CH2CO}-[3Pal]Y(Carboxymethyl)D[Phe(3-Me)]V[Bip][Cit][Orn][dL][Dab][Cha]VTC[Dab][Aun]-OH; thioether N-14)
5.2 nM | Cc1cccc(C[C@@H]2NC(=O)[C@H](CC(=O)O)NC(=O)[C@H](Cc3ccc(OCC(=O)O)cc3)NC(=O)[C@H](CCCNC(=N)N)NC(=O)CSC[C@@H](C(=O)N[C@@H](CCN)C(=O)NCCCCCCCCCCC(=O)O)NC(=O)[C@H]([C@@H](C)O)NC(=O)[C@H](C(C)C)NC(=O)[C@H](CC3CCCCC3)NC(=O)[C@H](CCN)NC(=O)[C@@H](CC(C)C)NC(=O)[C@H](CCCN)NC(=O)[C@H](CCCNC(N)=O)NC(=O)[C@H](Cc3ccc(-c4ccccc4)cc3)NC(=O)[C@H](Cc3ccc(O)cc3)NC2=O)c1 [Compound 2833] ({CH2CO}-RY(Carboxymethyl)D[Phe(3-Me)]Y[Bip][Cit][Orn][dL][Dab][Cha]VTC[Dab][Aun]-OH; thioether N-14)
20.2 nM | CC(C)C[C@H]1NC(=O)[C@H](CCCN)NC(=O)[C@H](CCCNC(N)=O)NC(=O)[C@H](Cc2ccc(-c3ccccc3)cc2)NC(=O)[C@H](Cc2ccc(O)cc2)NC(=O)[C@H](Cc2c[nH]c3ccccc23)NC(=O)[C@H](CC(=O)O)NC(=O)[C@H](Cc2ccc(OCC(=O)O)cc2)NC(=O)[C@H](CCCNC(=N)N)NC(=O)CSC[C@@H](C(=O)N[C@@H](CCN)C(=O)NCCCCCCCCCCC(=O)O)NC(=O)[C@H]([C@@H](C)O)NC(=O)[C@H](C(C)C)NC(=O)[C@H](CC2CCCCC2)NC(=O)[C@H](CCN)NC1=O [Compound 2834] ({CH2CO}-RY(Carboxymethyl)DWY[Bip][Cit][Orn][dL][Dab][Cha]VTC[Dab][Aun]-OH; thioether N-14)
18.9 nM | Cc1cccc(C[C@@H]2NC(=O)[C@H](CC(=O)O)NC(=O)[C@H](Cc3ccc(OCC(=O)O)cc3)NC(=O)[C@H](CCCNC(=N)N)NC(=O)CSC[C@@H](C(=O)N[C@@H](CCCN)C(=O)NCCCCCCCCCCC(=O)O)NC(=O)[C@H]([C@@H](C)O)NC(=O)[C@H](C(C)C)NC(=O)[C@H](CC3CCCCC3)NC(=O)[C@H](CCN)NC(=O)[C@@H](CC(C)C)NC(=O)[C@H](CCCN)NC(=O)[C@H](CCCNC(N)=O)NC(=O)[C@H](Cc3ccc(-c4ccccc4)cc3)NC(=O)[C@H](Cc3ccc(O)cc3)NC2=O)c1 [Compound 2835] ({CH2CO}-RY(Carboxymethyl)D[Phe(3-Me)]Y[Bip][Cit][Orn][dL][Dab][Cha]VTC[Orn][Aun]-OH; thioether N-14)
16.4 nM | Cc1cccc(C[C@@H]2NC(=O)[C@H](CC(=O)O)NC(=O)[C@H](Cc3ccc(OCC(=O)O)cc3)NC(=O)[C@H](CCCNC(=N)N)NC(=O)CSC[C@@H](C(=O)N[C@@H](CCN)C(=O)NCCCCCCCCCCC(=O)O)NC(=O)[C@H]([C@@H](C)O)NC(=O)[C@H](C(C)C)NC(=O)[C@H](CC3CCCCC3)NC(=O)[C@H](CCN)NC(=O)[C@@H](CC(C)C)NC(=O)[C@H](CCCN)NC(=O)[C@H](CCCNC(N)=O)NC(=O)[C@H](Cc3ccc(-c4ccccc4)cc3)NC(=O)[C@H](Cc3ccc(OCC(=O)O)cc3)NC2=O)c1 [Compound 2836] ({CH2CO}-RY(Carboxymethyl)D[Phe(3-Me)]Y(Carboxymethyl)[Bip][Cit][Orn][dL][Dab][Cha]VTC[Dab][Aun]-OH; thioether N-14)
30.2 nM | Cc1cccc(C[C@@H]2NC(=O)[C@H](CC(=O)O)NC(=O)[C@H](Cc3ccc(OCC(=O)O)cc3)NC(=O)[C@H](CCCNC(=N)N)NC(=O)CSC[C@@H](C(=O)N[C@@H](CCCN)C(=O)NCCCCCCCCCCC(=O)O)NC(=O)[C@H]([C@@H](C)O)NC(=O)[C@H](C(C)C)NC(=O)[C@H](CC3CCCCC3)NC(=O)[C@H](CCN)NC(=O)[C@@H](CC(C)C)NC(=O)[C@H](CCCNC(N)=O)NC(=O)[C@H](Cc3ccc(OCC(=O)O)cc3)NC(=O)[C@H](Cc3ccc(-c4ccccc4)cc3)NC(=O)[C@H](Cc3ccc(OCC(=O)O)cc3)NC2=O)c1 [Compound 2838] ({CH2CO}-RY(Carboxymethyl)D[Phe(3-Me)]Y(Carboxymethyl)[Bip]Y(Carboxymethyl)[Cit][dL][Dab][Cha]VTC[Orn][Aun]-OH; thioether N-14)
186 nM | Cc1cccc(C[C@@H]2NC(=O)[C@H](CC(=O)O)NC(=O)[C@H](Cc3ccc(OCC(=O)O)cc3)NC(=O)[C@H](CN)NC(=O)CSC[C@@H](C(=O)N(C)CC(=O)N[C@@H](CCC(=O)O)C(=O)NCCCCCCCCCCC(=O)O)NC(=O)[C@H]([C@@H](C)O)NC(=O)[C@H](C(C)C)NC(=O)[C@H](CC3CCCCC3)NC(=O)[C@H](CCN)NC(=O)[C@@H](CC(C)C)NC(=O)[C@H](CCCN)NC(=O)[C@H](CCCNC(N)=O)NC(=O)[C@H](Cc3ccc(-c4ccccc4)cc3)NC(=O)[C@H](C(C)C)NC2=O)c1 [Compound 2839] ({CH2CO}-[Dap]Y(Carboxymethyl)D[Phe(3-Me)]V[Bip][Cit][Orn][dL][Dab][Cha]VTC[Sar]E[Aun]-OH; thioether N-14)
18.1 nM | Cc1cccc(C[C@@H]2NC(=O)[C@H](CC(=O)O)NC(=O)[C@H](Cc3ccc(OCC(=O)O)cc3)NC(=O)[C@H](CN)NC(=O)CSC[C@@H](C(=O)N[C@@H](CCN)C(=O)NCCCCCCCCCCC(=O)O)NC(=O)[C@H]([C@@H](C)O)NC(=O)[C@H](C(C)(C)C)NC(=O)[C@H](CC3CCCCC3)NC(=O)[C@H](CCN)NC(=O)[C@@H](CC(C)C)NC(=O)[C@H](CCCN)NC(=O)[C@H](CCCNC(N)=O)NC(=O)[C@H](Cc3ccc(-c4ccccc4)cc3)NC(=O)[C@H](C(C)C)NC2=O)c1 [Compound 2840] ({CH2CO}-[Dap]Y(Carboxymethyl)D[Phe(3-Me)]V[Bip][Cit][Orn][dL][Dab][Cha][Tle]TC[Dab][Aun]-OH; thioether N-14)
12.3 nM | Cc1cccc(C[C@@H]2NC(=O)[C@H](CC(=O)O)NC(=O)[C@H](Cc3ccc(OCC(=O)O)cc3)NC(=O)[C@H](CN)NC(=O)CSC[C@@H](C(=O)N[C@@H](CCN)C(=O)NCCCCCCCCCCC(=O)O)NC(=O)[C@H](CCCN)NC(=O)[C@H](C(C)C)NC(=O)[C@H](CC3CCCCC3)NC(=O)[C@H](CCN)NC(=O)[C@@H](CC(C)C)NC(=O)[C@H](CCCN)NC(=O)[C@H](Cc3ccc(O)cc3)NC(=O)[C@H](Cc3ccc(-c4ccccc4)cc3)NC(=O)[C@H](C(C)C)NC2=O)c1 [Compound 2841] ({CH2CO}-[Dap]Y(Carboxymethyl)D[Phe(3-Me)]V[Bip]Y[Orn][dL][Dab][Cha]V[Orn]C[Dab][Aun]-OH; thioether N-14)
11.1 nM | Cc1cccc(C[C@@H]2NC(=O)[C@H](CC(=O)O)NC(=O)[C@H](Cc3ccc(OCC(=O)O)cc3)NC(=O)[C@H](CN)NC(=O)CSC[C@@H](C(=O)N[C@@H](CCN)C(=O)NCCCCCCCCCCC(=O)O)NC(=O)[C@H](CCCN)NC(=O)[C@H](C(C)C)NC(=O)[C@H](CC3CCCCC3)NC(=O)[C@H](CCN)NC(=O)[C@@H](CC(C)C)NC(=O)[C@H](CCCN)NC(=O)[C@H](Cc3ccc(OCC(=O)O)cc3)NC(=O)[C@H](Cc3ccc(-c4ccccc4)cc3)NC(=O)[C@H](C(C)C)NC2=O)c1 [Compound 2842] ({CH2CO}-[Dap]Y(Carboxymethyl)D[Phe(3-Me)]V[Bip]Y(Carboxymethyl)[Orn][dL][Dab][Cha]V[Orn]C[Dab][Aun]-OH; thioether N-14)
9.2 nM | Cc1cccc(C[C@@H]2NC(=O)[C@H](CC(=O)O)NC(=O)[C@H](Cc3ccc(OCC(=O)O)cc3)NC(=O)[C@H](CN)NC(=O)CSC[C@@H](C(=O)N[C@@H](CCN)C(=O)NCCCCCCCCCCC(=O)O)NC(=O)[C@H](CCCN)NC(=O)[C@H](C(C)C)NC(=O)[C@H](CC3CCCCC3)NC(=O)[C@H](CCN)NC(=O)[C@@H](CC(C)C)NC(=O)[C@H](CCCN)NC(=O)[C@H](Cc3ccc(OCC(=O)O)cc3)NC(=O)[C@H](Cc3ccc(-c4ccccc4)cc3)NC(=O)[C@H](Cc3ccc(OCC(=O)O)cc3)NC2=O)c1 [Compound 2843] ({CH2CO}-[Dap]Y(Carboxymethyl)D[Phe(3-Me)]Y(Carboxymethyl)[Bip]Y(Carboxymethyl)[Orn][dL][Dab][Cha]V[Orn]C[Dab][Aun]-OH; thioether N-14)
